# Experimental data from US20120149576A1, “METHOD FOR CULTIVATING CROP PLANT” (SUMITOMO CHEMICAL COMPANY, LIMITED, priority 2009, published 2012).
# Tests used:
# [1] = test system: recombinant soybean lines J16, J18, J26 and J28; test: Resistance test using a spreader: soybean; type: in vivo; details: spray application as in Example 2, about two weeks later
# Procedure: Seeds of the T2 generation of the recombinant soybean lines J16, […], J26 and J28, which are described in US20060009361, are aseptically sown in the culture pots charged with Kureha soil and grown for about 3 weeks in the phytotron. As negative control, seeds of a wild-type soybean (cv. Jack) are similarly grown in the phytotron. The plants thus obtained are subjected to the saflufenacil application test. The application test is conducted according to the method described above in Example 2. About two weeks later, the susceptibility of the tested recombinant soybean plants to saflufenacil is compared with that of the wild-type soybean plants (cv. Jack) to saflufenacil.
# [2] = test system: recombinant tobacco line P-6-1 (progeny) leaf discs; test: Resistance test using leaf discs on MS agar medium supplemented with saflufenacil; type: cell-based; details: for Score of adverse effects (browning or chlorosis) on leaf disc / Ratio of green area to leaf disc area (%): P-6-1; for Score of adverse effects (browning or chlorosis) on leaf disc: 5 plants; for Ratio of green area to leaf disc area (%): image analysis of FIG. 1, day 8
# Procedure: P-6-1; DNA encoding the amino acid sequence of SEQ ID NO:1 and DNA encoding the amino acid sequence of SEQ ID NO:3;
# (§1) Homozygote seeds of the recombinant tobacco lines 1609soy#25 and P023, which are described in EP1598423, and progeny seeds of the recombinant tobacco line P-6-1, which is also described in EP1598423, were aseptically sown on MS agar medium supplemented with 100 mg/L kanamycin and screened for plants with kanamaycin resistance. Leaf discs were prepared by cutting true leaves of the selected plants at 1 month after sowing, and placed on MS agar medium supplemented with 0.01 ppm, 0.03 ppm or 0.10 ppm saflufenacil. As negative control, seeds of wild-type SR-1 tobacco plants were aseptically sown on MS agar medium and, similarly, leaf discs were prepared by cutting true leaves of the plants at 1 month after sowing, and placed on MS agar medium supplemented with 0.01 ppm, 0.03 ppm or 0.10 ppm saflufenacil.
# (§2) The leaf discs were prepared from 5 individual plants for each experimental plot. Scoring evaluation was conducted according to the degrees of adverse effects manifested as browning or chlorosis. The scoring criteria are as follows:
# (§3) In the photograph shown in FIG. 1, the green-colored portions were color extracted using the image analysis software “Win ROOF ver.6.1.0” (MITANI Corporation) and their area was quantified. This was then divided by the area calculated by subtracting the area of the medium from the entire area of the image, thereby calculating the percentage of the area of the green-colored portions to the area of the leaf disc.
# [3] = test system: wild-type SR-1 tobacco leaf discs; test: as above; type: cell-based; details: for Score of adverse effects (browning or chlorosis) on leaf disc / Ratio of green area to leaf disc area (%): Wild-type SR-1; for Score of adverse effects (browning or chlorosis) on leaf disc / Observed adverse effect on leaf discs: day 8; for Score of adverse effects (browning or chlorosis) on leaf disc: 5 plants; for Ratio of green area to leaf disc area (%): image analysis of FIG. 1, day 8; for Observed adverse effect on leaf discs: wild-type SR-1 tobacco leaves
# Procedure: as §1, §2, §3
# [4] = test system: recombinant tobacco lines 1609soy#17 and #25, 1584soy#16, P023, and 35S-2; test: Resistance test using a spreader: tobacco; type: in vivo; details: spray application with automatic spreader; about two weeks later; homozygotes of 1609soy#17, #25, 1584soy#16, P023, 35S-2
# Source text: Homozygote seeds of the recombinant tobacco lines 1609soy#17 and #25, 1584soy#16, […], and 35S-2, which are described in EP1598423, are aseptically sown on MS agar medium. Subsequently, the germinated individuals are transferred to culture pots charged with Kureha soil (Kureha Chemicals) and acclimated to the outdoor environment in the phytotron. They are than grown for two weeks in the phytotron. As negative control, seeds of wild-type SR-1 tobacco plants are aseptically sown on MS agar medium and, similarly grown in the phytotron. The plants thus obtained are subjected to the saflufenacil application test. The spray solution is prepared by dissolving saflufenacil in an appropriate solvent, adding an adjuvant, and diluting it with water. Application of the spray solution to the plants are conducted using an wheeled automatic spreader (Mamba Architect Office), by homogenously spraying 20 mL of the solution onto the seedlings of the recombinant and wild-type tobacco plants placed within a 0.9 square-meter area to which the solution is applied. About two weeks later, the susceptibility of the tested recombinant tobacco plants to saflufenacil is compared with that of the wild-type SR-1 tobacco plants to saflufenacil. […] Scoring evaluation is conducted according to the degrees of adverse effects manifested as death of individual plants, or browning or chlorosis of the leaves or stems.
# [5] = test system: recombinant tobacco line P023 leaf discs; test: Resistance test using leaf discs on MS agar medium supplemented with saflufenacil; type: cell-based; details: for Score of adverse effects (browning or chlorosis) on leaf disc / Ratio of green area to leaf disc area (%): P023; for Score of adverse effects (browning or chlorosis) on leaf disc / Observed adverse effect on leaf discs: day 8; for Score of adverse effects (browning or chlorosis) on leaf disc: 5 plants; for Ratio of green area to leaf disc area (%): image analysis of FIG. 1, day 8; for Observed adverse effect on leaf discs: recombinant tobacco line P023
# Procedure: : DNA encoding the amino acid sequence of SEQ ID NO:3; Homozygote seeds of the recombinant tobacco lines 1609soy#25 and […], which are described in EP1598423, and progeny seeds of the recombinant tobacco line P-6-1, which is also described in EP1598423, were aseptically sown on MS agar medium supplemented with 100 mg/L kanamycin and screened for plants with […] resistance. Leaf discs were prepared by cutting true leaves of the selected plants at 1 month after sowing, and placed on MS agar medium supplemented with 0.01 ppm, 0.03 ppm or 0.10 ppm saflufenacil. As negative control, seeds of wild-type SR-1 tobacco plants were aseptically sown on MS agar medium and, similarly, leaf discs were prepared by cutting true leaves of the plants at 1 month after sowing, and placed on MS agar medium supplemented with 0.01 ppm, 0.03 ppm or 0.10 ppm saflufenacil. […] The leaf discs were prepared from 5 individual plants for each experimental plot. Scoring evaluation was conducted according to the degrees of adverse effects manifested as browning or chlorosis. The scoring criteria are as follows: In the photograph shown in FIG. 1, the green-colored portions were color extracted using the image analysis software “Win ROOF ver.6.1.0” (MITANI Corporation) and their area was quantified. This was then divided by the area calculated by subtracting the area of the medium from the entire area of the image, thereby calculating the percentage of the area of the green-colored portions to the area of the leaf disc.
# [6] = test system: recombinant tobacco line 1609soy#25 leaf discs; test: as above; type: cell-based; details: for Score of adverse effects (browning or chlorosis) on leaf disc / Ratio of green area to leaf disc area (%): 1609soy#25; for Score of adverse effects (browning or chlorosis) on leaf disc / Observed adverse effect on leaf discs: day 8; for Score of adverse effects (browning or chlorosis) on leaf disc: 5 plants; for Ratio of green area to leaf disc area (%): image analysis of FIG. 1, day 8; for Observed adverse effect on leaf discs: recombinant tobacco line 1609soy#25
# Procedure: 1609soy#25: DNA encoding the amino acid sequence of SEQ ID NO:1;
# as §1, §2, §3
smiles,measurement,setting,value
"CC(C)N(C)S(=O)(=O)NC(=O)c1cc(-n2c(=O)cc(C(F)(F)F)n(C)c2=O)c(F)cc1Cl [Saflufenacil, N′-{2-chloro-4-fluoro-5-[1,2,3,6-tetrahydro-3-methyl-2,6-dioxo-4-(trifluoromethyl)pyrimidine-1-yl]benzoyl}-N-isopropyl-N-methyl sulfamide]",Susceptibility of recombinant soybean plants to saflufenacil compared with wild-type soybean (cv. Jack),[1],lower susceptibility
same,Score of adverse effects (browning or chlorosis) on leaf disc,"[2]; saflufenacil 0.01 ppm, day 8",3.0
same,Ratio of green area to leaf disc area (%),[2]; saflufenacil 0.01 ppm,87%
same,Score of adverse effects (browning or chlorosis) on leaf disc,"[2]; saflufenacil 0.03 ppm, day 8",2.6
same,Ratio of green area to leaf disc area (%),[2]; saflufenacil 0.03 ppm,78%
same,Score of adverse effects (browning or chlorosis) on leaf disc,"[2]; saflufenacil 0.10 ppm, day 8",3.0
same,Ratio of green area to leaf disc area (%),[2]; saflufenacil 0.10 ppm,83%
same,Observed adverse effect on leaf discs,"[2]; progeny plants of recombinant tobacco line P-6-1, 0.10 ppm, day 8",no adverse effect
same,Score of adverse effects (browning or chlorosis) on leaf disc,[3]; saflufenacil 0.01 ppm,2.0
same,Ratio of green area to leaf disc area (%),[3]; saflufenacil 0.01 ppm,77%
same,Score of adverse effects (browning or chlorosis) on leaf disc,[3]; saflufenacil 0.03 ppm,1.0
same,Ratio of green area to leaf disc area (%),[3]; saflufenacil 0.03 ppm,20%
same,Score of adverse effects (browning or chlorosis) on leaf disc,[3]; saflufenacil 0.10 ppm,0.2
same,Ratio of green area to leaf disc area (%),[3]; saflufenacil 0.10 ppm,2%
same,Observed adverse effect on leaf discs,[3]; 0.01 ppm,partial browning
same,Observed adverse effect on leaf discs,[3]; 0.10 ppm,overall chlorosis
same,Susceptibility of recombinant tobacco plants to saflufenacil compared with wild-type SR-1,[4],lower susceptibility
same,Score of adverse effects (browning or chlorosis) on leaf disc,[5]; saflufenacil 0.01 ppm,3.0
same,Ratio of green area to leaf disc area (%),[5]; saflufenacil 0.01 ppm,89%
same,Score of adverse effects (browning or chlorosis) on leaf disc,[5]; saflufenacil 0.03 ppm,3.0
same,Ratio of green area to leaf disc area (%),[5]; saflufenacil 0.03 ppm,86%
same,Score of adverse effects (browning or chlorosis) on leaf disc,[5]; saflufenacil 0.10 ppm,2.0
same,Ratio of green area to leaf disc area (%),[5]; saflufenacil 0.10 ppm,51%
same,Observed adverse effect on leaf discs,[5]; 0.10 ppm,partial chlorosis
same,Observed adverse effect on leaf discs,[5]; up to 0.03 ppm,no adverse effect
same,Score of adverse effects (browning or chlorosis) on leaf disc,[6]; saflufenacil 0.01 ppm,3.0
same,Ratio of green area to leaf disc area (%),[6]; saflufenacil 0.01 ppm,85%
same,Score of adverse effects (browning or chlorosis) on leaf disc,[6]; saflufenacil 0.03 ppm,2.0
same,Ratio of green area to leaf disc area (%),[6]; saflufenacil 0.03 ppm,80%
same,Score of adverse effects (browning or chlorosis) on leaf disc,[6]; saflufenacil 0.10 ppm,1.0
same,Ratio of green area to leaf disc area (%),[6]; saflufenacil 0.10 ppm,8%
same,Observed adverse effect on leaf discs,[6]; 0.01 ppm,no adverse effect
same,Observed adverse effect on leaf discs,[6]; 0.03 ppm,partial browning
same,Observed adverse effect on leaf discs,[6]; 0.10 ppm,overall browning
